Data on 20 compounds can be found in the supplement of paper PMC11061612.

Assay [1] concerns NCI-H211 (Small Cell Lung Carcinoma). Briefly: Bliss excess, mean over the matrix (fraction); higher = more synergy. In short, it runs like this:
(§1)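 Bliss excess equals the observed combination effect minus the expected value EA + EB − EA·EB, where EA and EB are the effects of each agent alone. Combination Emax is the second-highest inhibition within the matrix. Inhibition was scaled from CellTiter-Glo 2.0 luminescence, with 0 set by vehicle wells and 1 by blank wells, after 72 hours of two-drug dosing of cells plated in 1536-well plates.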

Assay [2] concerns NCI-H1781 (Lung Adenocarcinoma). Briefly: combination Emax (second highest fraction inhibited in the dose matrix, 72 h); higher = more inhibition; extreme values may be limits of the assay. In short, it runs like this:
as §1

Assay [3] relates to NCI-H211 (Small Cell Lung Carcinoma). Described as above. In a few lines:
as §1

Assay [4] relates to SW756 (Cervical Carcinoma). Described as above. In short, it runs like this: as §1

For the compound `C[C@@H](c1ccc2nccn2c1)n1nnc2ncc(-c3cnn(C)c3)nc21` [Savolitinib] + Cc1c2c(nn1C)CSCc1cc(n(C)n1)CSc1cc(c3ccccc3c1)OCCCc1c(C(=O)O)n(C)c3c-2c(Cl)ccc13 [AZD5991] (first compound max 1 µM, 7x7, partner max 1 µM), the Bliss excess in assay [1] was 0.033. Besides, the “combination Emax” value in assay [2] came out at 0.32; in assay [3], 0.859; in assay [4], 0.128.

As for `NC1(C(=O)N[C@@H](CCO)c2ccc(Cl)cc2)CCN(c2ncnc3[nH]ccc23)CC1` [Capivasertib] + COc1nnc2ccc(N3CCC(c4ccc(OCCN5CCN(C)C(=O)[C@H]5C)cc4)CC3)nn12 [AZD5153] (first compound max 10 µM, 7x7, partner max 1 µM), the Bliss excess in assay [1] is -0.0113. Also, the “combination Emax” value in assay [2] turned out to be 0.527; in assay [3] it was 1; in assay [4] it was 0.413.

Turning to `Cn1cnc2c(F)c(Nc3ccc(Br)cc3Cl)c(C(=O)NOCCO)cc21` [Selumetinib] + C[C@@H]1COCCN1C2=NC(=NC(=C2)C3(CC3)[S@](=N)(=O)C)C4=C5C=CNC5=NC=C4 [AZD6738] (first compound max 10 µM, 7x7, partner max 10 µM), in assay [1], the Bliss excess is -0.0285. For the same compound, the “combination Emax” value in assay [2] was 0.396; in assay [3], 0.606; in assay [4], 0.287.

Consider `NC1(C(=O)N[C@@H](CCO)c2ccc(Cl)cc2)CCN(c2ncnc3[nH]ccc23)CC1` [Capivasertib] + Cn1cnc2c(F)c(Nc3ccc(Br)cc3Cl)c(C(=O)NOCCO)cc21 [Selumetinib] (first compound max 10 µM, 7x7, partner max 10 µM), for which the Bliss excess in assay [1] stood at 0.119. Also, the “combination Emax” value in assay [2] turned out to be 0.695; in assay [3] it was 0.568; in assay [4] it was 0.448.

Consider `CC(=O)c1c(C)c2cnc(Nc3ccc(N4CCNCC4)cn3)nc2n(C2CCCC2)c1=O` [Palbociclib] + CC1(C)CCC(CN2CCN(c3ccc(C(=O)NS(=O)(=O)c4ccc(NCC5CCOCC5)c([N+](=O)[O-])c4)c(Oc4cnc5[nH]ccc5c4)c3)CC2)=C(c2ccc(Cl)cc2)C1 [Venetoclax] (first compound max 10 µM, 7x7, partner max 1 µM), for which, in assay [1], the Bliss excess turned out to be 0.0694. The “combination Emax” value in assay [2] stood at 0.118; in assay [3], 0.965; in assay [4], 0.0569.

On to `Cn1cnc2c(F)c(Nc3ccc(Br)cc3Cl)c(C(=O)NOCCO)cc21` [Selumetinib] + C=CCn1c(=O)c2cnc(Nc3ccc(N4CCN(C)CC4)cc3)nc2n1-c1cccc(C(C)(C)O)n1 [AZD1775] (first compound max 10 µM, partner max 1 µM), for which the Bliss excess in assay [1] stood at 0.0248. The “combination Emax” value in assay [2] stood at 0.485; in assay [3] it was 0.831; in assay [4] it was 0.346.

Take `Cn1cnc2c(F)c(Nc3ccc(Br)cc3Cl)c(C(=O)NOCCO)cc21` [Selumetinib] + CC(C)n1c(=O)n(C)c2cnc3cc(F)c(-c4ccc(OCCCN5CCCCC5)nc4)cc3c21 [AZD1390] (first compound max 10 µM, 7x7, partner max 0.3 µM): the Bliss excess in assay [1] was -0.0015. Also, the “combination Emax” value came out at 0.218 in assay [2], 0.239 in assay [3] and 0.229 in assay [4].

`CC(=O)c1c(C)c2cnc(Nc3ccc(N4CCNCC4)cn3)nc2n(C2CCCC2)c1=O` [Palbociclib] + Cn1cnc2c(F)c(Nc3ccc(Br)cc3Cl)c(C(=O)NOCCO)cc21 [Selumetinib] (first compound max 10 µM, 7x7, partner max 10 µM): the Bliss excess in assay [1] stood at 0.0861. Besides, the “combination Emax” value in assay [2] was 0.235; in assay [3] it was 0.657; in assay [4], 0.343.

On to `COc1nnc2ccc(N3CCC(c4ccc(OCCN5CCN(C)C(=O)[C@H]5C)cc4)CC3)nn12` [AZD5153] + C=CCn1c(=O)c2cnc(Nc3ccc(N4CCN(C)CC4)cc3)nc2n1-c1cccc(C(C)(C)O)n1 [AZD1775] (first compound max 1 µM, partner max 1 µM), for which the Bliss excess in assay [1] is -0.0008. The entries for the “combination Emax” value in assay [2], in assay [3] and in assay [4] were 0.478, 0.993 and 0.426, respectively.

Regarding `COc1nnc2ccc(N3CCC(c4ccc(OCCN5CCN(C)C(=O)[C@H]5C)cc4)CC3)nn12` [AZD5153] + C[C@@H]1COCCN1C2=NC(=NC(=C2)C3(CC3)[S@](=N)(=O)C)C4=C5C=CNC5=NC=C4 [AZD6738] (first compound max 1 µM, 7x7, partner max 10 µM), the Bliss excess in assay [1] was -0.008. The entries for the “combination Emax” value in assay [2], in assay [3] and in assay [4] were 0.491, 1 and 0.447, respectively.

Turning to `Cc1nc(Nc2ncc(C(=O)Nc3c(C)cccc3Cl)s2)cc(N2CCN(CCO)CC2)n1` [Dasatinib] + CC(=O)Nc1cccc(-n2c(=O)n(C3CC3)c(=O)c3c(Nc4ccc(I)cc4F)n(C)c(=O)c(C)c32)c1 [Trametinib] (first compound max 2 µM, 7x7, partner max 1 µM), in assay [1], the Bliss excess came to 0.0556. Also, the “combination Emax” value in assay [2] was 0.34; in assay [3] it was 0.456; in assay [4], 0.691.

As for `CC(=O)c1c(C)c2cnc(Nc3ccc(N4CCNCC4)cn3)nc2n(C2CCCC2)c1=O` [Palbociclib] + Cc1c2c(nn1C)CSCc1cc(n(C)n1)CSc1cc(c3ccccc3c1)OCCCc1c(C(=O)O)n(C)c3c-2c(Cl)ccc13 [AZD5991] (first compound max 10 µM, 7x7, partner max 1 µM), the Bliss excess in assay [1] turned out to be 0.118. In addition, the “combination Emax” value in assay [2] turned out to be 0.403; in assay [3], 0.905; in assay [4] it was 0.29.

With `NC1(C(=O)N[C@@H](CCO)c2ccc(Cl)cc2)CCN(c2ncnc3[nH]ccc23)CC1` [Capivasertib] + CC(C)n1c(=O)n(C)c2cnc3cc(F)c(-c4ccc(OCCCN5CCCCC5)nc4)cc3c21 [AZD1390] (first compound max 10 µM, 7x7, partner max 0.3 µM), the Bliss excess in assay [1] is -0.0294. For the same compound, the “combination Emax” value in assay [2] amounted to 0.485; in assay [3], 0.488; in assay [4], 0.31.

In the case of `COc1nnc2ccc(N3CCC(c4ccc(OCCN5CCN(C)C(=O)[C@H]5C)cc4)CC3)nn12` [AZD5153] + CC1(C)CCC(CN2CCN(c3ccc(C(=O)NS(=O)(=O)c4ccc(NCC5CCOCC5)c([N+](=O)[O-])c4)c(Oc4cnc5[nH]ccc5c4)c3)CC2)=C(c2ccc(Cl)cc2)C1 [Venetoclax] (first compound max 1 µM, 7x7, partner max 1 µM), the Bliss excess in assay [1] was determined as 0.03. The results for the “combination Emax” value in assay [2], in assay [3] and in assay [4] were 0.224, 1 and 0.315, respectively.

Consider `COc1nnc2ccc(N3CCC(c4ccc(OCCN5CCN(C)C(=O)[C@H]5C)cc4)CC3)nn12` [AZD5153] + CCN(CCO)CCCOc1ccc2c(Nc3cc(CC(=O)Nc4cccc(F)c4)[nH]n3)ncnc2c1 [AZD2811] (first compound max 1 µM, 7x7, partner max 1 µM), for which the Bliss excess in assay [1] is -0.0081. Besides, the “combination Emax” value in assay [2] stood at 0.517; in assay [3], 1; in assay [4], 0.386.

As to `Cn1cnc2c(F)c(Nc3ccc(Br)cc3Cl)c(C(=O)NOCCO)cc21` [Selumetinib] + CCN(CCO)CCCOc1ccc2c(Nc3cc(CC(=O)Nc4cccc(F)c4)[nH]n3)ncnc2c1 [AZD2811] (first compound max 10 µM, 7x7, partner max 1 µM), in assay [1], the Bliss excess is -0.0446. Moreover, the entries for the “combination Emax” value in assay [2], in assay [3] and in assay [4] were 0.623, 0.938 and 0.294, respectively.

Regarding `NC1(C(=O)N[C@@H](CCO)c2ccc(Cl)cc2)CCN(c2ncnc3[nH]ccc23)CC1` [Capivasertib] + C[C@@H]1COCCN1C2=NC(=NC(=C2)C3(CC3)[S@](=N)(=O)C)C4=C5C=CNC5=NC=C4 [AZD6738] (first compound max 10 µM, 7x7, partner max 10 µM), the Bliss excess in assay [1] stood at 0.0232. The “combination Emax” value amounted to 0.685 in assay [2], 0.665 in assay [3] and 0.428 in assay [4].

For `COc1nnc2ccc(N3CCC(c4ccc(OCCN5CCN(C)C(=O)[C@H]5C)cc4)CC3)nn12` [AZD5153] + Cc1c2c(nn1C)CSCc1cc(n(C)n1)CSc1cc(c3ccccc3c1)OCCCc1c(C(=O)O)n(C)c3c-2c(Cl)ccc13 [AZD5991] (first compound max 1 µM, 7x7, partner max 1 µM), the Bliss excess in assay [1] is -0.0175. For the same compound, the “combination Emax” value in assay [2] was found to be 0.435; in assay [3] it was 1; in assay [4] it was 0.367.

Take `CS(=O)(=O)CCNCc1ccc(-c2ccc3ncnc(Nc4ccc(OCc5cccc(F)c5)c(Cl)c4)c3c2)o1` [Lapatinib] + C[C@@H](Oc1cc(-c2cnn(C3CCNCC3)c2)cnc1N)c1c(Cl)ccc(F)c1Cl [Crizotinib] (first compound max 10 µM, 7x7, partner max 10 µM): the Bliss excess in assay [1] was -0.0329. Besides, the “combination Emax” value in assay [2] was 0.774; in assay [3] it was 0.948; in assay [4], 0.313.

`COc1cc2ncnc(Nc3ccc(F)c(Cl)c3)c2cc1OCCCN1CCOCC1` [Gefitinib] + CC(C)n1c(=O)n(C)c2cnc3cc(F)c(-c4ccc(OCCCN5CCCCC5)nc4)cc3c21 [AZD1390] (first compound max 10 µM, 7x7, partner max 0.3 µM): the Bliss excess in assay [1] was -0.053. The “combination Emax” value came out at 0.538 in assay [2], 0.227 in assay [3] and 0.1 in assay [4].
